# Experimental data: patent publication US8030346B2, “Heterocyclic quinolone derivatives that inhibit prolyl hydroxylase activity” (Amgen Inc., priority 2007, dated 2011)
# How the values were obtained:
# [1] = molecular target: HIF PHD2 (Homo sapiens, UniProt Q9GZT9); test: PHD2 inhibition assay (TR-FRET, VCB-Eu detection of hydroxylated P564-HIF1α peptide); assay type: biochemical; settings: Table of PHD2 IC50 values of Example Compounds
# Description: Inhibition of HIF PHD2 activity was quantified utilizing the TR-FRET technology. HIF PHD2 catalyzes a hydroxyl modification on the proline residue of the P564-HIF1α peptide substrate (Biotin-[…] (SEQ ID NO: 7)) resulting in recognition and binding of the europylated Von Hippel-Lindau protein (pVHL), elongin B and elongin C heterotrimeric (VCB-Eu) complex.
# The PHD2 inhibition assay was executed by addition of freshly dissolved FeCl2 to 178.57 μM (100 μM final concentration) in PHD2 Reaction Buffer containing 30 mM MES, pH 6, 10 mM NaCl, 0.25% Brij-35, 0.01% BSA, and 1% DMSO. 28 μL of the iron solution and 2 μL of inhibitor compounds serially diluted in 100% DMSO (5% DMSO final) were added to black polypropylene 96-well microtiter plates. To that, 10 μL of 10 nM PHD2 (2 nM final) was added to all wells of the plate except for the 8 wells of column 12 (LO control), and allowed to incubate at room temperature on the shaker for one hour. Column 6 was the HI control containing PHD2 enzyme and 5% DMSO vehicle, but no inhibitor compound. To initiate the PHD2 enzymatic reaction, 10 μL of a solution containing 500 nM P564-HIF1α peptide (100 nM final), 10 mM ascorbic acid (2 mM final), and 1.25 μM 2-oxoglutarate (α-ketoglutarate; 0.25 μM final) in PHD2 Reaction Buffer was added to all wells of the plate and allowed to incubate on the shaker at room temperature for one hour.
# The reaction was terminated by addition of 25 μL TR-FRET Buffer (50 mM TRIS-HCl, pH 9, 100 mM NaCl, 0.05% BSA, and 0.5% Tween-20) containing 150 mM succinate (product inhibitor; 50 mM final), 75 nM streptavidin-APC (25 nM final), and 7.5 nM VCB-Eu (2.5 nM final). The TR-FRET detection reagents were placed on a shaker for 1 hour to reach binding equilibrium before reading on the Discovery platform (PerkinElmer). Europium is excited at 315 nm and phosphoresces at 615 nm with a large Stoke's shift. APC, in turn, emits at 655 nm upon excitation at 615 nm. The TR-FRET signal is measured as the ratio of the APC 655 nm signal divided by the internal europium reference 615 nm emission signal.
# The POC (percentage of control) was determined by comparing the signal from hydroxylated peptide substrate in the enzyme reaction containing inhibitor compound with that from PHD2 enzyme with DMSO vehicle alone (HI control), and no enzyme (LO control). POC was calculated using the formula: % control (POC)=(cpd−average LO)/(average HI−average LO)*100. Data (consisting of POC and inhibitor concentration in […]) was fitted to a 4-parameter equation (y=A+((B−A)/(1+((x/C)^D))), where A is the minimum y (POC) value, B is the maximum y (POC), C is the x (cpd concentration) at the point of inflection and D is the slope factor) using a Levenburg-Marquardt non-linear regression algorithm.
# [2] = molecular target: T1, Collagen Prolyl Hydroxylase II (CPH2) (Homo sapiens, UniProt O15460); test: Collagen prolyl hydroxylase II activity by radiometric HPLC measurement of 2-oxoglutarate conversion to succinic acid; assay type: biochemical
# T1 construct: made in house; host or cells: Trichoplusia ni insect cells (baculovirus, pFastBac1)
# T1 sequence (O15460 22-533 isoform O15460-2 limits assumed): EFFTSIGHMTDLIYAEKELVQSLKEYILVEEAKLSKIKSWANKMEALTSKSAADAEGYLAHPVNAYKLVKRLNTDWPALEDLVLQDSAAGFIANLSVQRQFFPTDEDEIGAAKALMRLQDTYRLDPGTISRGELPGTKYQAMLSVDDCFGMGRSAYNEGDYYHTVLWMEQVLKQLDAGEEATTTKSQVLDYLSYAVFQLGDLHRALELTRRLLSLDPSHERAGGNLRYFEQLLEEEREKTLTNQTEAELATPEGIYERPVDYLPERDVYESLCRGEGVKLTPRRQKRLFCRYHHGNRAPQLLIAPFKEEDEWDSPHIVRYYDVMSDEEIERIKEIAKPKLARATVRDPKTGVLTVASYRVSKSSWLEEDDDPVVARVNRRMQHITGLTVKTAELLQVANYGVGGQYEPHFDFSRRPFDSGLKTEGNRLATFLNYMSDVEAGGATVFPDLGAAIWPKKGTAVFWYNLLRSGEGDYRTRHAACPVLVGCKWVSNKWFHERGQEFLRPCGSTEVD
# T1 sequence (P07237 18-508 partner): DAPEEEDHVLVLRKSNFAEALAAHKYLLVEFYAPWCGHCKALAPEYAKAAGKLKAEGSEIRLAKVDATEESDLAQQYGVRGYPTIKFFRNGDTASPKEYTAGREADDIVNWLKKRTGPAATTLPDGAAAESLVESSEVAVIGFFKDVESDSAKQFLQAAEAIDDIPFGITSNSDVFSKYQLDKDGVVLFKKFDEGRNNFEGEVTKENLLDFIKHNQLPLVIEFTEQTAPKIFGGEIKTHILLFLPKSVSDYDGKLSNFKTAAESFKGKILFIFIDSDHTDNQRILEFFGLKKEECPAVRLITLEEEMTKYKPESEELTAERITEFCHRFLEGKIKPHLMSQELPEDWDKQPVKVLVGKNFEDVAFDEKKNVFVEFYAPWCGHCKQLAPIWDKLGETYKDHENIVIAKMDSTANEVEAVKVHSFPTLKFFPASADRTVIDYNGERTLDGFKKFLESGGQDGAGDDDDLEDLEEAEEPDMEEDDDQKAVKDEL
# Description: Assay Buffer consisted of Tris-HCl, pH 7.5, 0.2 mM DTT, and 0.5 mg/ml catalase. PPG10 peptide was dissolved in 0.25% acetic acid and denatured by boiling for 5 minutes then placed on ice for 5 minutes. The denatured PPG10 was then pre-mixed with 1 M ascorbate, prepared in water, and the mixture diluted with Assay Buffer to yield a working solution of 5× peptide and ascorbate. FeSO4 was freshly dissolved in water and diluted to a 2.8× concentration in Assay Buffer. Enzyme stocks were diluted to a 5× concentration in Assay Buffer. Example compounds plus FeSO4 solution were mixed, followed by addition of 5× enzyme solutions. After 10 minutes gentle mixing at room temperature, the 5× peptide solution was added. […] Final concentrations in the assay were: 50 mM Tris-HCl, pH 7.5, 0.2 mM DTT, 0.5 mg/mL catalase, 10 μM FeSO4, 100 μM PPG10, 50 μM 5-[^14C]-2-oxoglutarate (23-37 cpm/pmol), 1 mM ascorbate, and 4% DMSO. Reactions were gently mixed at room temperature for 1 hour and terminated by addition of an equal volume of 0.02 N H2SO4.
# A portion of each terminated reaction was auto-injected into a Polypore H column (PerkinElmer, Waltham, Mass.) at a rate of 0.3 mL/min with 0.01 NH2SO4 as the mobile phase. The HPLC method employed exploits the difference in pKa of the 2-OG and SA carboxylates to chromatographically separate substrate from product at low pH on ion-exchange resin, as described by Cunliffe, et al (Biochem J., 240, 617-619 (1986)) and Kaule and Gunzler (Anal. Biochem., 184, 291-297 (1990)). An Agilent 1100 HPLC System with dual quaternary pumps, column switching valve, and dual columns was used to resolve product from substrate. The Agilent 1100 Multiple Wavelength Detector indicated UV absorption of the substrate and product peaks at 210 nm and a Beta-RAM Model 2 radiation detector with In-Flow 2:1 scintillation cocktail (IN/US Systems Inc.) enabled quantitation of the 2 radioactive peaks. Laura Lite software (IN/US, Tampa, Fla.) was used to collect and analyze radiometric data. […] To standardize across studies, 2-OG conversion was normalized to percent of control (POC) values using reactions that lacked enzyme or inhibitor as low and high controls, respectively. POC data was fitted to the 4-parameter logistic model (A+((B−A)/(1+((x/C)^D)))) using ActivityBase (IDBS, Alameda Calif.) where A is the minimum POC value, B is the maximum POC value, D is the slope factor, and C is compound concentration at the inflection point (IC50, micromolar).
# HIF PHD2, sequence (Q9GZT9 whole entry): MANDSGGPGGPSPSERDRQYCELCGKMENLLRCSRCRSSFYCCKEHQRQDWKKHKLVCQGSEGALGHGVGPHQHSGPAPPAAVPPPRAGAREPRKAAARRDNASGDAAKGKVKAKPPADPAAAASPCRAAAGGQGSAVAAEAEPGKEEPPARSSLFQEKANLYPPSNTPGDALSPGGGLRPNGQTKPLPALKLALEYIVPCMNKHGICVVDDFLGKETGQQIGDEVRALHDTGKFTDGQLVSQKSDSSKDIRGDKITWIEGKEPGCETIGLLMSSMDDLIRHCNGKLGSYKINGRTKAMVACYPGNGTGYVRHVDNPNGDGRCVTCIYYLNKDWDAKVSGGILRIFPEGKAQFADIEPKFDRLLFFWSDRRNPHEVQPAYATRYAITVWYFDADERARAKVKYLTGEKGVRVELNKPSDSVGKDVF
IC50 [1] [µM],IC50 [2] [µM],SMILES
0.02,,"Cc1nc2c(s1)c(O)c(C(=O)NCC(=O)O)c(=O)n2C [Example 2, N-((7-hydroxy-2,4-dimethyl-5-oxo-4,5-dihydro[1,3]thiazolo[4,5-b]pyridin-6-yl)carbonyl)glycine]"
0.075,0.345,"Cn1c(=O)c(C(=O)NCC(=O)O)c(O)c2sccc21 [Example 3, 2-(7-hydroxy-4-methyl-5-oxo-4,5-dihydrothieno[3,2-b]pyridine-6-carboxamido)acetic acid]"
0.024,,"Cc1csc2c(O)c(C(=O)NCC(=O)O)c(=O)n(C)c12 [Example 4, 2-(7-hydroxy-3,4-dimethyl-5-oxo-4,5-dihydrothieno[3,2-b]pyridine-6-carboxamido)acetic acid]"
0.0073,0.03,"Cn1c(=O)c(C(=O)NCC(=O)O)c(O)c2sc(Br)cc21 [Example 6, 2-(2-bromo-7-hydroxy-4-methyl-5-oxo-4,5-dihydrothieno[3,2-b]pyridine-6-carboxamido)acetic acid]"
0.122,,"Cc1csc2c(O)c(C(=O)N[C@@H](C)C(=O)O)c(=O)n(C)c12 [Example 7, (S)-2-(7-hydroxy-3,4-dimethyl-5-oxo-4,5-dihydrothieno[3,2-b]pyridine-6-carboxamido)propanoic acid]"
0.015,,"Cn1c(=O)c(C(=O)NCC(=O)O)c(O)c2sc3ccccc3c21 [Example 9, N-((4-hydroxy-1-methyl-2-oxo-1,2-dihydro[1]benzothieno[3,2-b]pyridin-3-yl)carbonyl)glycine]"
0.016,,"Cc1ncccc1-c1cc2c(s1)c(O)c(C(=O)NCC(=O)O)c(=O)n2C [Example 13, 2-(7-hydroxy-4-methyl-2-(2-methylpyridin-3-yl)-5-oxo-4,5-dihydrothieno[3,2-b]pyridine-6-carboxamido)acetic acid]"
0.078,,"Cc1ccsc1-c1cc2c(s1)c(O)c(C(=O)NCC(=O)O)c(=O)n2C [Example 14, 2-(7-hydroxy-4-methyl-2-(3-methylthiophen-2-yl)-5-oxo-4,5-dihydrothieno[3,2-b]pyridine-6-carboxamido)acetic acid]"
0.02,,"Cc1c(Br)sc2c(O)c(C(=O)NCC(=O)O)c(=O)n(C)c12 [Example 16, 2-(2-bromo-7-hydroxy-3,4-dimethyl-5-oxo-4,5-dihydrothieno[3,2-b]pyridine-6-carboxamido)acetic acid]"

# Second part, the compound before the results:
SMILES,IC50 [1] [µM],IC50 [2] [µM]
"Cn1c(=O)c(C(=O)NCC(=O)O)c(O)c2sc(-c3ccc(Cl)cc3)nc21 [Example 1, N-((2-(4-chlorophenyl)-7-hydroxy-4-methyl-5-oxo-4,5-dihydro[1,3]thiazolo[4,5-b]pyridin-6-yl)carbonyl)glycine]",0.047,
"Cn1c(=O)c(C(=O)NCC(=O)O)c(O)c2sc(-c3ccc(Cl)cc3)cc21 [Example 5, 2-(2-(4-chlorophenyl)-7-hydroxy-4-methyl-5-oxo-4,5-dihydrothieno[3,2-b]pyridine-6-carboxamido)acetic acid]",0.097,
"Cn1c(=O)c(C(=O)NCC(=O)O)c(O)c2sc(C(F)(F)F)c(-c3ccccc3)c21 [Example 8, 2-(7-hydroxy-4-methyl-5-oxo-3-phenyl-2-(trifluoromethyl)-4,5-dihydrothieno[3,2-b]pyridine-6-carboxamido)acetic acid]",0.018,
"C[C@H](NC(=O)c1c(O)c2sc3ccccc3c2n(C)c1=O)C(=O)O [Example 10, N-((4-hydroxy-1-methyl-2-oxo-1,2-dihydro[1]benzothieno[3,2-b]pyridin-3-yl)carbonyl)-L-alanine]",0.109,
"Cn1c(=O)c(C(=O)NCC(=O)O)c(O)c2sc(-c3ccc(F)cc3)cc21 [Example 11, 2-(2-(4-fluorophenyl)-7-hydroxy-4-methyl-5-oxo-4,5-dihydrothieno[3,2-b]pyridine-6-carboxamido)acetic acid]",0.015,
"Cn1c(=O)c(C(=O)NCC(=O)O)c(O)c2sc(-c3cncnc3)cc21 [Example 12, 2-(7-hydroxy-4-methyl-5-oxo-2-(pyrimidin-5-yl)-4,5-dihydrothieno[3,2-b]pyridine-6-carboxamido)acetic acid]",0.0083,
"Cn1c(=O)c(C(=O)NCC(=O)O)c(O)c2sc(-c3ccccc3)cc21 [Example 15, 2-(7-hydroxy-4-methyl-5-oxo-2-phenyl-4,5-dihydrothieno[3,2-b]pyridine-6-carboxamido)acetic acid]",0.021,
"Cn1c(=O)c(C(=O)CCC(=O)O)c(O)c2sc(Br)cc21 [Example 17, 4-(2-bromo-7-hydroxy-4-methyl-5-oxo-4,5-dihydrothieno[3,2-b]pyridin-6-yl)-4-oxobutanoic acid]",0.064,3.78
"Cn1c(=O)c(C(=O)CCC(=O)O)c(O)c2sccc21 [Example 18, 4-(7-hydroxy-4-methyl-5-oxo-4,5-dihydrothieno[3,2-b]pyridin-6-yl)-4-oxobutanoic acid]",0.003,34.3
